Source: BigSolDB 2.1

COc1ccc(Cl)cc1C(=O)NCCc1ccc(S(=O)(=O)NC(=O)NC2CCCCC2)cc1
solubility (mole fraction)
Conditions	283.15 K	288.15 K	293.15 K	298.15 K	303.15 K	308.15 K	313.15 K	318.15 K	323.15 K
in MIBK	0.000198	0.000227	0.000276	0.000336	0.000426	0.000529	0.000655	0.000789	0.000908
in acetone	0.000471	0.000568	0.00069	0.000894	0.00109	0.00134	0.00171	0.00214	0.00261
in acetonitrile	5.25e-05	7.15e-05	9.85e-05	0.000131	0.000163	0.000225	0.000316	0.000418	0.000558
in ethanol	0.000108	0.00015	0.000188	0.000249	0.000316	0.000412	0.000591	0.000865	0.00116
in ethyl acetate	9.01e-05	0.000121	0.00015	0.000181	0.000226	0.00029	0.000375	0.000486	0.000627
in isopropanol	7.55e-05	8.89e-05	0.000126	0.000162	0.000207	0.000271	0.000401	0.000619	0.000934
in methanol	0.000124	0.000165	0.00021	0.000284	0.000355	0.000488	0.000695	0.00105	0.00143
in methyl acetate	0.000127	0.000164	0.000202	0.000246	0.000296	0.000372	0.000492	0.000629	0.000769
in n-butanol	0.000186	0.000223	0.000242	0.000284	0.000334	0.000445	0.000646	0.000922	0.00135
in n-propanol	0.0001	0.000125	0.000163	0.000225	0.000286	0.000381	0.000538	0.000729	0.000983
in sec-butanol	6.35e-05	7.97e-05	0.000104	0.000141	0.000184	0.000248	0.000365	0.000568	0.000887
